Test results reported in ChEMBL document CHEMBL1201862, “PubChem BioAssay data set” (2004).
Activity calls are given as the source filed them.

Experiments:
[1] = nonselective inhibitors of cellular cAMP signaling, dose response, counter-screen for MC4R biased antagonist project, cell-based, TR-FRET cAMP detection (AID 602305); type: functional;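 also: U2OS cells stimulated with forskolin near its EC80 as the cAMP inducer; potency is for inhibition of forskolin-stimulated cAMP signaling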
[2] = biological target: T1, Carboxy-terminal domain RNA polymerase II polypeptide A small phosphatase 1 (Homo sapiens, UniProt Q9GZU7); assay: inhibitors of CTDSP1, concentration-response testing, biochemical assay, absorbance-based, actives from ultra-high-throughput screening (AID 540297); type: functional
T1 sequence (Q9GZU7 whole entry): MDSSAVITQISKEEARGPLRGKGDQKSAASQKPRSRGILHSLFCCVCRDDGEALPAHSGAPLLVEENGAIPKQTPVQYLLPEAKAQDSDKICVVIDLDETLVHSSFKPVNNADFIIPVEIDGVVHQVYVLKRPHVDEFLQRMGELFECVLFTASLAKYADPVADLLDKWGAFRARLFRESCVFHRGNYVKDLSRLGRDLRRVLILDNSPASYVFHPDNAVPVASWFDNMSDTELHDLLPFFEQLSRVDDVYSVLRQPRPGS

[3] = biological target: T2, Voltage-gated N-type calcium channel alpha-1B subunit/Amyloid beta A4 precursor protein-binding family A member 1 (Homo sapiens, UniProt Q00975+Q02410); type: protein assay
T2 sequence (Q00975 whole entry): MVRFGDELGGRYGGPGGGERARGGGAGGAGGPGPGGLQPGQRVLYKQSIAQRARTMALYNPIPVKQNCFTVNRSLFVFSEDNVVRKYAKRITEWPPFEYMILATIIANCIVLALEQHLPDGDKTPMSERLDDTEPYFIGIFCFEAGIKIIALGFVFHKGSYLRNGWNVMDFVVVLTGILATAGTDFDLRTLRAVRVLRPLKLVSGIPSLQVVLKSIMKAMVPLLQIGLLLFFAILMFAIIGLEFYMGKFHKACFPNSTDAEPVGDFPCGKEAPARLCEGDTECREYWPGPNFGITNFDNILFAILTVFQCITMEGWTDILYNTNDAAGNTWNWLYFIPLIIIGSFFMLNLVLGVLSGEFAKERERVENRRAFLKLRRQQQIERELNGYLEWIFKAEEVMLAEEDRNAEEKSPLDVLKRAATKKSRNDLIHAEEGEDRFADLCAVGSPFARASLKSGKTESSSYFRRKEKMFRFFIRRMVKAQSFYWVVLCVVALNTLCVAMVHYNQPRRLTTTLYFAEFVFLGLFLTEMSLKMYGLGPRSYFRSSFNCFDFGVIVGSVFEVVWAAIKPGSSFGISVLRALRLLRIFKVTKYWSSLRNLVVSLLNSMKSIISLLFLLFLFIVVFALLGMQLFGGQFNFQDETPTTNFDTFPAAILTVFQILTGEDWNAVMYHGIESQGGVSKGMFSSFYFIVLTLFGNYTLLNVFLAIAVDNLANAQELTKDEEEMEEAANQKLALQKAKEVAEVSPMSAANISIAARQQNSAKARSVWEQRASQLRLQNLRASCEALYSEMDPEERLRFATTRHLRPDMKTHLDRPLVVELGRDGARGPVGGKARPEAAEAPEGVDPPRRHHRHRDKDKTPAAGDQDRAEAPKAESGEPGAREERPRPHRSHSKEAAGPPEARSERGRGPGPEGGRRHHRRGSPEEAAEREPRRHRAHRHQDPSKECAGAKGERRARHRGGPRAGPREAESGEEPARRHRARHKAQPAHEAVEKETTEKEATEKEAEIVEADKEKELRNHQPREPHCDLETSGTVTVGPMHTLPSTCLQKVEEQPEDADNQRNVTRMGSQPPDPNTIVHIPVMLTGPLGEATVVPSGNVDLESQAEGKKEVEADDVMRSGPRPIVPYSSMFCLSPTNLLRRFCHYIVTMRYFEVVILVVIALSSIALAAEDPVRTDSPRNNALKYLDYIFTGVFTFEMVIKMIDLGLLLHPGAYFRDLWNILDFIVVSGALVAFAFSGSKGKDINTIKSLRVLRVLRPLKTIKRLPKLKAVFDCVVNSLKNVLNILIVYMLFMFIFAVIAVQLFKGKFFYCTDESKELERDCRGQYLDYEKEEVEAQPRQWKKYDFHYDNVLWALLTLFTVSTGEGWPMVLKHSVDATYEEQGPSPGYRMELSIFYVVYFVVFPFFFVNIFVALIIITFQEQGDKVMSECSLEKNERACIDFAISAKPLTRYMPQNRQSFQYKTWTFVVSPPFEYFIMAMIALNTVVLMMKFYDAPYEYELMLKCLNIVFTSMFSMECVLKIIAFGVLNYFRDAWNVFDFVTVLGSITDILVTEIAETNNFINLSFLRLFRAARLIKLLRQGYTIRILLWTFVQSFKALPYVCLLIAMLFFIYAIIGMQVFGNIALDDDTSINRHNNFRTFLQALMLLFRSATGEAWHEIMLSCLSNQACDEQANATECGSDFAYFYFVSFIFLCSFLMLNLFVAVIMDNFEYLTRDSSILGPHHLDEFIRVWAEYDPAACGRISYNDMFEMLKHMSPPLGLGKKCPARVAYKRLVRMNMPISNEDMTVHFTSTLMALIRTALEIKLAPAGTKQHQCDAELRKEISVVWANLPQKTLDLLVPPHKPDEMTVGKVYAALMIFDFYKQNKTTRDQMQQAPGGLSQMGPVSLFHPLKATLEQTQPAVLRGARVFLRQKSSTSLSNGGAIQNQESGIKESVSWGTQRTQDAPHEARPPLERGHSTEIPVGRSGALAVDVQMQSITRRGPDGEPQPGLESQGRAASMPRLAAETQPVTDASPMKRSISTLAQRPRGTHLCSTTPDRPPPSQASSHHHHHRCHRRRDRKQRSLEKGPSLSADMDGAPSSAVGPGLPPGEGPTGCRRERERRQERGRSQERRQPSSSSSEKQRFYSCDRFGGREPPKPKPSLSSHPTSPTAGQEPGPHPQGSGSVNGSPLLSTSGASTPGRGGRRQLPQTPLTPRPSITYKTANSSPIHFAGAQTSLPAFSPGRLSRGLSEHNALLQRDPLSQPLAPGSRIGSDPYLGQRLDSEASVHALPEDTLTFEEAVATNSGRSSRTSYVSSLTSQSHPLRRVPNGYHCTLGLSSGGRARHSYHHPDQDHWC
T2 sequence (Q02410 whole entry): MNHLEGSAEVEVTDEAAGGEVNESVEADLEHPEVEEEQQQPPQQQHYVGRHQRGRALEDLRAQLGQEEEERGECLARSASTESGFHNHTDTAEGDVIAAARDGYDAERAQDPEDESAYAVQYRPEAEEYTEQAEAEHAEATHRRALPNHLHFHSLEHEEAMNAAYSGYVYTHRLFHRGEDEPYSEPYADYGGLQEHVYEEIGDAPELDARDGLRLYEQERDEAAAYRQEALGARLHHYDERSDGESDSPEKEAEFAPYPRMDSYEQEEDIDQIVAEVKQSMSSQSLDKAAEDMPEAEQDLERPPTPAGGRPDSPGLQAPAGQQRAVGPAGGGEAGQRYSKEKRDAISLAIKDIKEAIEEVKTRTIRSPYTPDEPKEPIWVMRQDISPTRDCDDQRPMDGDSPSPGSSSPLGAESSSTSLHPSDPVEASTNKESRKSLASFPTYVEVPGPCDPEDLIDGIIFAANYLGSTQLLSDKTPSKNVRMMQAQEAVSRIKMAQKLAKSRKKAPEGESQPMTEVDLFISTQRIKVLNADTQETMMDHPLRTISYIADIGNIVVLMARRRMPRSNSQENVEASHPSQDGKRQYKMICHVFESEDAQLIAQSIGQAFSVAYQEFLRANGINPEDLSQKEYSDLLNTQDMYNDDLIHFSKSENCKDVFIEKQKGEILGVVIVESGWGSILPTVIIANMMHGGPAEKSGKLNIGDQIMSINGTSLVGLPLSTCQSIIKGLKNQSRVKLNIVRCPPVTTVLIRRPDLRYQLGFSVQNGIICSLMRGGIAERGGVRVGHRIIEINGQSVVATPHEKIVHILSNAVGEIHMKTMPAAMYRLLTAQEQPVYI

[4] = biological target: Neurotensin receptor type 1 (Homo sapiens, UniProt P30989); type: functional;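 also: Image-based confirmatory dose-response assay measuring agonist activity at NTR1; NTR1-expressing U2OS osteosarcoma cells imaged for beta-arrestin GFP spot formation; agonist potency where compounds increase beta-arrestin recruitment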
[5] = biological target: T3, Histone-lysine N-methyltransferase NSD2 (Homo sapiens, UniProt O96028); type: biochemical
T3 sequence (O96028 whole entry): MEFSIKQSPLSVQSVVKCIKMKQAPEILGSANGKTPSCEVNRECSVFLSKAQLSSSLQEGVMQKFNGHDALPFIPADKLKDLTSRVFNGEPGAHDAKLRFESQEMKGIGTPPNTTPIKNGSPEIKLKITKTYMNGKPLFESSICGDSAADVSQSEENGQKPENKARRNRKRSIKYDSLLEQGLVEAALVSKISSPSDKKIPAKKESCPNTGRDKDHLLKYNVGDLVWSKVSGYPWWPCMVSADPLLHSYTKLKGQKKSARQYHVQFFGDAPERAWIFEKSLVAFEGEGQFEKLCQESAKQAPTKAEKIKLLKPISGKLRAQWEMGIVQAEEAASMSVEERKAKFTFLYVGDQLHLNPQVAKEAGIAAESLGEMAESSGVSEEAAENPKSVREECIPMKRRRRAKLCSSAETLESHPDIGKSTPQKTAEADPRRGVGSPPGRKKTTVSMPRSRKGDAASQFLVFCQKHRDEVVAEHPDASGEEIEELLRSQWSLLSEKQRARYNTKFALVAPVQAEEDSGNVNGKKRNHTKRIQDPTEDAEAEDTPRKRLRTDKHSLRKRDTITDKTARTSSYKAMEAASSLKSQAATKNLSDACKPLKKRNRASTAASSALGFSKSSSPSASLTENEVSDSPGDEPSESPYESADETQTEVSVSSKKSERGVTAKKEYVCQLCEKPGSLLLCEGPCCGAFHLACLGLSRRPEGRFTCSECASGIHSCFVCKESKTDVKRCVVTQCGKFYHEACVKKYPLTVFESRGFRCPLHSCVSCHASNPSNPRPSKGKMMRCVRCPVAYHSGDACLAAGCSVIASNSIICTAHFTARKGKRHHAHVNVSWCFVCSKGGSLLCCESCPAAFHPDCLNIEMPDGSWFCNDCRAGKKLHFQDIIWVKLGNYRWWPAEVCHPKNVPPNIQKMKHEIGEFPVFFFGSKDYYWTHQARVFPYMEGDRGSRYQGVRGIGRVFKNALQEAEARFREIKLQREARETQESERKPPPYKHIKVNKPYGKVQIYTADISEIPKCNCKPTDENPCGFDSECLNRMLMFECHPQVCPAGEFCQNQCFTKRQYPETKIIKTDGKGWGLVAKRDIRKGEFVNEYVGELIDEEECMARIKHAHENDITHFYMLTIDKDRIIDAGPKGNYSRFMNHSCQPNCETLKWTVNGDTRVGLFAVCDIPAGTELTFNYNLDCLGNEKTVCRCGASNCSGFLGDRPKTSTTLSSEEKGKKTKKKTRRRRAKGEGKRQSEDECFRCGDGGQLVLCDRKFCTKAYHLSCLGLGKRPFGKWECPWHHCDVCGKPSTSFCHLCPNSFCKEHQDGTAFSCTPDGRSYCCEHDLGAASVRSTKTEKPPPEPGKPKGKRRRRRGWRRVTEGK

[6] = biological target: T2, Voltage-gated N-type calcium channel alpha-1B subunit/Amyloid beta A4 precursor protein-binding family A member 1; type: protein assay; remark: listed apart in the source
[7] = biological target: Melanocortin receptor 4 (Homo sapiens, UniProt P32245); assay: MC4R antagonist potency on cAMP, dose response, cell-based, TR-FRET, biased antagonists (AID 602298); type: functional;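 also: antagonist potency against agonist-stimulated cAMP production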
[8] = THP-1 cell cytotoxicity, cytotoxicity control, set 4 (AID 504911); type: functional; details: Mycobacterium tuberculosis
[9] = A Cell Based Secondary Assay to Explore Cytotoxicity in HepG2 Cells of Compounds that Modulate Mycobacterium tuberculosis in Media Containing Glycerol versus Media without Glycerol (2).; type: functional
[10] = Vero cell cytotoxicity, dose response, cytotoxicity control for M. tuberculosis growth inhibitor project, Vero cells, purified and synthesized compounds, set 4 (AID 504854); type: functional; details: Mycobacterium tuberculosis
[11] = Vero cell cytotoxicity, cytotoxicity control for M. tuberculosis inhibitor project, purified and synthesized samples, set 3 (AID 504684); type: functional
[12] = THP-1 cell cytotoxicity, dose response, cytotoxicity control, set 3 (AID 504852); type: functional; details: Mycobacterium tuberculosis
[13] = biological target: Mitogen-activated protein kinase kinase kinase kinase 4 (Homo sapiens, UniProt O95819); type: functional
[14] = biological target: Serine/threonine-protein kinase pim-1 (Homo sapiens, UniProt P11309); type: functional
[15] = biological target: Glycogen synthase kinase-3 beta (Homo sapiens, UniProt P49841); type: functional;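 also: value comes from a broad kinome profiling panel, with GSK3B as the panel member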
Sequence of Glycogen synthase kinase-3 beta (P49841 whole entry): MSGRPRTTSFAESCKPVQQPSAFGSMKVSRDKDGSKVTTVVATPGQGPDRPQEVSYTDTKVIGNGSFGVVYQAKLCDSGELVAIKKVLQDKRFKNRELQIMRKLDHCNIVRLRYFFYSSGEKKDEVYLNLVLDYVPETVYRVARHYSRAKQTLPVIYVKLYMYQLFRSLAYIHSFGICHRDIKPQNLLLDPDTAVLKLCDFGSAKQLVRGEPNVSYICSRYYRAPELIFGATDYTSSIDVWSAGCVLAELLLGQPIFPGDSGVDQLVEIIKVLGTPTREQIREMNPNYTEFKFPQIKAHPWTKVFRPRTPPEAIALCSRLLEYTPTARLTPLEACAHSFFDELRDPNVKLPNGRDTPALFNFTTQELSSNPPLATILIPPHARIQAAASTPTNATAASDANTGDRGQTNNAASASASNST

[16] = biological target: cAMP-dependent protein kinase catalytic subunit alpha (Homo sapiens, UniProt P17612); type: functional
[17] = biological target: Cell division cycle 7-related protein kinase (Homo sapiens, UniProt O00311); type: functional;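 also: value obtained from a kinome-wide kinase panel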
[18] = biological target: Interleukin-1 receptor-associated kinase 4 (Homo sapiens, UniProt Q9NWZ3); type: functional
Sequence of Interleukin-1 receptor-associated kinase 4 (Q9NWZ3 whole entry): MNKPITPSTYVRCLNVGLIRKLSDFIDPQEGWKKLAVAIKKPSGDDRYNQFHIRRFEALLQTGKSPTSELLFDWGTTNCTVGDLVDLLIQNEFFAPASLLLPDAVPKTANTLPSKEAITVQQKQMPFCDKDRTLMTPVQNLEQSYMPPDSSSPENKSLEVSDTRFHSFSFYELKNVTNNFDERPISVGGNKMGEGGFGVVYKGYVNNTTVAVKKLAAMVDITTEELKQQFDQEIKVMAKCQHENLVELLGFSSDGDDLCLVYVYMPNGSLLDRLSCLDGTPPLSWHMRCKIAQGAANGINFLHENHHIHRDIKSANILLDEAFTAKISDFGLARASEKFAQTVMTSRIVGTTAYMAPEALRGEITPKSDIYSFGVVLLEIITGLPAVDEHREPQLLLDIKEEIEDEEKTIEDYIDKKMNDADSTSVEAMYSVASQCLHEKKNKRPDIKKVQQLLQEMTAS

[19] = biological target: Homeodomain-interacting protein kinase 2 (Homo sapiens, UniProt Q9H2X6); type: functional;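 also: measured within a kinome-wide kinase profiling panel, HIPK2 being one panel member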
[20] = biological target: Dual specificity protein kinase CLK4 (Homo sapiens, UniProt Q9HAZ1); type: functional
[21] = system: CHO-K1; assay: Counterscreen for antagonists of the orexin 1 receptor (OX1R; HCRTR1): Homogeneous time resolved fluorescence (HTRF)-based cell-based dose response assay to identify antagonists of the parental CHO-K1 cell line. [Related pubchem assays (depositor defined):AID434989, AID435008, AID463079, AID485270, AID492963, AID492964, AID492965, AID493232, AID504699, AID504701]; type: functional; details: Cricetulus griseus;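 also: potency for inhibition of ATP-stimulated IP1 production as antagonists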
[22] = biological target: T4, Orexin/Hypocretin receptor type 1 (Homo sapiens, UniProt O43613); assay: Fluorescence-based cell-based high throughput dose response assay for antagonists of the orexin 1 receptor (OX1R; HCRTR1). [Related pubchem assays (depositor defined):AID434989, AID435008, AID463079, AID485270, AID492963, AID492964, AID492965, AID493232, AID504717, AID504718]; type: functional
T4 sequence (O43613 whole entry): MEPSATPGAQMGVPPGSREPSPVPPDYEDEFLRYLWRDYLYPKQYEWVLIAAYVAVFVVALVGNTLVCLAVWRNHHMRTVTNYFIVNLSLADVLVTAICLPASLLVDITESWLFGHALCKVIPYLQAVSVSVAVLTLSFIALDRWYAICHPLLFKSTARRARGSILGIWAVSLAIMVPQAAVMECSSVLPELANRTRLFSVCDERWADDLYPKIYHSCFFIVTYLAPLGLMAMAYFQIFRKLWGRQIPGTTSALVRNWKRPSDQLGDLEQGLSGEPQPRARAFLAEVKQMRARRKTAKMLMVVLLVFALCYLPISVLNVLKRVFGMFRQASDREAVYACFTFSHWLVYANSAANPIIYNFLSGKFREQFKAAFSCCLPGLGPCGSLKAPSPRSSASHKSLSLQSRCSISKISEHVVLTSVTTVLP

[23] = biological target: T5, Orexin receptor type 2 (Homo sapiens, UniProt O43614); assay: Counterscreen assay for antagonists of the orexin 1 receptor (OX1R; HCRTR1): Homogeneous Time Resolved Fluorescence (HTRF)-based cell-based dose response assay for antagonists of the orexin 2 receptor (OX2R; HCRTR2), run by assay provider.; type: functional
T5 sequence (O43614 whole entry): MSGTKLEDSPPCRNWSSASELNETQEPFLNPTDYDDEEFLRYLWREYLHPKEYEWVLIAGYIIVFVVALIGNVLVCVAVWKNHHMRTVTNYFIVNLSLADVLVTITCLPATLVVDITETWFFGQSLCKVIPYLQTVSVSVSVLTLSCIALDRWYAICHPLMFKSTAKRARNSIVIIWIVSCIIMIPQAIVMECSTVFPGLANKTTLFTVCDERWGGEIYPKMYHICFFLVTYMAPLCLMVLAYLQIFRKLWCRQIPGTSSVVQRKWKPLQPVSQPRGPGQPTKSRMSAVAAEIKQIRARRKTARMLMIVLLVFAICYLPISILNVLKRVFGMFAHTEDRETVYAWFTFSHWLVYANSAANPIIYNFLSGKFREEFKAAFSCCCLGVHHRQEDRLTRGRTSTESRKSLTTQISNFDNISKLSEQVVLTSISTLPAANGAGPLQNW

[24] = Counterscreen for antagonists of the orexin 1 receptor (OX1R; HCRTR1): Fluorescence-based cell-based high throughput dose response assay to identify antagonists of the parental CHO cell line. [Related pubchem assays (depositor defined):AID434989, AID435008, AID463079, AID485270, AID492963, AID492964, AID492965, AID493232, AID504699, AID504701]; type: functional
[25] = biological target: T4, Orexin/Hypocretin receptor type 1; assay: Homogeneous Time Resolved Fluorescence (HTRF)-based cell-based high throughput dose response assay for antagonists of the orexin 1 receptor (OX1R; HCRTR1). [Related pubchem assays (depositor defined):AID434989, AID435008, AID463079, AID485270, AID492963, AID492964, AID492965, AID493232, AID504717, AID504718]; type: functional
[26] = biological target: T5, Orexin receptor type 2; assay: Counterscreen assay for antagonists of the orexin 1 receptor (OX1R; HCRTR1): Fluorescence-based cell-based dose response assay for antagonists of the orexin 2 receptor (OX2R; HCRTR2), run by assay provider.; type: functional
[27] = system: Streptococcus; assay: Group A Streptococcus viability loss, dose response, counter-screen for streptokinase expression inhibitor project, luminescence, BacTiterGlo (AID 1915); type: functional, organism-based;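 also: potency for reduction of bacterial viability or growth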
[28] = biological target: Cysteine protease ATG4B (Homo sapiens, UniProt Q9Y4P1); type: functional;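 also: Fluorescence-based dose-response confirmation assay measuring inhibition of ATG4B activity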
[29] = C. albicans growth with fluconazole, confirmation, fluorescence, retest (AID 2467); type: functional, cell-based
[30] = biological target: Phospholipase A2 (Homo sapiens, UniProt P04054); type: functional;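 also: confirmatory dose-response counterscreen on phospholipase A2, testing hits that came from an ultra-high-throughput screen for ATG4B inhibitors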
Sequence of Phospholipase A2 (P04054 whole entry): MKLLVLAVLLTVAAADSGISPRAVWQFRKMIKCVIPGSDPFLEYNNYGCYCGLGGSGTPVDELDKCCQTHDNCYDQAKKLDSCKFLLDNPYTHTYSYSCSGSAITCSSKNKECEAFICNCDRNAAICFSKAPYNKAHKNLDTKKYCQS

[31] = system: Streptococcus sp. 'group A'; assay: growth inhibition of control SK(-) GAS strain, dose response, counter-screen for streptokinase expression inhibitor project, luminescence, kanamycin, BacTiterGlo, confirmation (AID 1900); type: functional, organism-based
[32] = NIH-3T3 fibroblast cytotoxicity, dose response, cytotoxicity control, cell-based, fluorescence, Alamar Blue, secondary assay (AID 2327); type: functional;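 also: NIH-3T3 mouse fibroblasts cultured with fluconazole at 8 µg/mL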
[33] = biological target: T6, Streptokinase A (Streptococcus pyogenes serotype M1, UniProt P10520); assay: S. pyogenes streptokinase expression inhibitors, potency, dose response, plasminogen activation absorbance, OD405 (AID 1914); type: functional, Streptococcus pyogenes M1 GAS;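 also: secreted streptokinase activity via plasminogen activation per viability signal from cell pellet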
T6 sequence (P10520 whole entry): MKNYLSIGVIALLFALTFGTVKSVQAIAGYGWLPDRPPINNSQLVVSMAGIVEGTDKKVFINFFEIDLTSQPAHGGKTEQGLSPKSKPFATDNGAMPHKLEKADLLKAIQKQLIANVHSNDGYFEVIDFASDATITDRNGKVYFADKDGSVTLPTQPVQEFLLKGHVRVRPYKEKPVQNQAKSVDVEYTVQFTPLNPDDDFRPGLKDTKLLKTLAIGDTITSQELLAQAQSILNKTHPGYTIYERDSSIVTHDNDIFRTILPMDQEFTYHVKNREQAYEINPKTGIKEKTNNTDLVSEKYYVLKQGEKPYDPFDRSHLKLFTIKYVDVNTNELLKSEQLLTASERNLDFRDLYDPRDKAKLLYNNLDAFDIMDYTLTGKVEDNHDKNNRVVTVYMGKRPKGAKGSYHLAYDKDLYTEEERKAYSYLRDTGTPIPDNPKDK

[34] = biological target: Protein disulfide-isomerase (Homo sapiens, UniProt P07237); assay: PDI inhibitors, insulin aggregation turbidity, dose response, biochemical, absorbance, cherry-picked samples (AID 602350); type: functional
[35] = system: CHO; assay: cytotoxicity in TLR9-MyD88 CHO cells, dose response, cytotoxicity control for TLR9-MyD88 binding inhibitor project, cell-based, luminescence (AID 588339); type: functional, hamster; details: Cricetulus griseus;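 also: CHO cells stably coexpressing TLR9 and MyD88 fusions from primary screen; compound exposure lasted 48 hours before viability readout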
[36] = biological target: UDP-galactopyranose mutase (Mycobacterium tuberculosis, UniProt P9WIQ1); assay: Inhibitors of Mycobacterium tuberculosis UDP-galactopyranose mutase (UGM) enzyme Measured in Biochemical System Using Plate Reader - 2105-02_Inhibitor_Dose_CherryPick_Activity. [Related pubchem assays (depositor defined):AID504439]
[37] = biological target: Beta Lactamase (Pseudomonas aeruginosa, UniProt Q932Y6); assay: beta-lactamase reporter inhibitor potency, dose response, artefact control for TLR9-MyD88 binding inhibitor project, BLA reporter cells, FRET fluorescence (AID 588341); type: cell-based;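 also: cell based assay in CHO-K1 cells stably expressing beta-lactamase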

O=C1NC(=O)C(=Cc2ccc(SC3CCCCC3)o2)C(=O)N1
IC50 [1]: > 64.6 µM (inactive) | IC50 [2]: 5.67 µM (active) | IC50 [3]: 14.5 µM (active) | EC50 [4]: 12.7 µM (active) | AC50 [5]: > 20 µM (inactive) | IC50 [6]: > 50 µM (inactive) | IC50 [7]: > 21.5 µM (inactive)

CC1CCN(C(=O)C2CCN(c3nnc(-n4cccc4)s3)CC2)CC1
CC50 [8]: > 100 µM (active) | CC50 [9]: > 50 µM (active) | CC50 [10]: > 100 µM (active) | CC50 [11]: > 100 µM (active) | CC50 [12]: > 100 µM (active)

O=C1Nc2ccccc2Nc2cc(-c3ccncc3F)ccc21
Ki [13]: 0.794 µM (active) | Ki [14]: > 10 µM (inactive) | Ki [15]: 0.158 µM (active) | Ki [16]: 1 µM (active) | Ki [17]: 0.00398 µM (active) | Ki [18]: 1.58 µM (active) | Ki [19]: 0.631 µM (active) | Ki [20]: 0.0251 µM (active)

Cc1ccc(/C=C2/Sc3ccccc3N(CC(=O)NCC3CCCO3)C2=O)cc1 (configuration not stated)
IC50 [21]: > 66.2 µM (inactive) | IC50 [22]: 5.59 µM (active) | IC50 [23]: > 50 µM (inactive) | IC50 [24]: > 49.8 µM (inactive) | IC50 [25]: 1.77 µM (active) | IC50 [26]: 29.8 µM (inactive)

O=C1NC(=O)/C(=C/c2ccccc2Oc2ccc(Cl)cc2)S1
EC50 [27]: 7.13 µM (active) | IC50 [28]: 9.09 µM (active) | EC50 [29]: 5.01 µM (active) | IC50 [30]: 13.9 µM (active) | EC50 [31]: 7.87 µM (active) | EC50 [32]: > 160 µM (inactive) | EC50 [33]: > 50 µM (not active)

C/C=C(\C)C(=O)NCCN1C2=NC[C@H](Cc3ccc(O)cc3)N2C[C@H]1Cc1ccc(O)cc1
AC50 [34]: 15.4 µM (active)

O=C(NCc1cccc(F)c1)c1cccc2c1C(=O)c1ccc(N3CCC(Cc4ccccc4)CC3)cc1S2(=O)=O
IC50 [35]: > 49.8 µM (inactive) | AC50 [36]: 5.93 µM (active) | IC50 [37]: 3.21 µM (active)
